# Laboratory results reported in patent publication US20120128614A1, “SOLVENT, SOLUTION, CLEANING COMPOSITION AND METHODS” (SEGETIS, INC., priority 2009, published 2012).
# What was measured:
# [1] = Castor oil solubilization into water by cosolvent; conditions: about 25° C.
# Description: Mixtures of water and castor oil ChemistryStore.com; Cayce, S.C.) are prepared at 10/90, 25/75, 50/50, 75/25 and 90/10 volume ratios. […] To assess the ability of Et-LGK to solubilize castor oil into water, Et-LGK is added to each of these mixtures with vigorous stirring in a 20 mL scintillation vial at about 25° C. until a clear solution is obtained.
# [2] = Soya methyl esters solubilization into water by cosolvent; conditions: about 25° C.
# Description: Mixtures of water and soya methyl esters (Stepan Chemical, Northfield, Ill.) are prepared at 10/90, 25/75, 50/50, 75/25 and 90/10 volume ratios.
# [3] = Isobutyl isobutyrate (IBIB) solubilization into water by cosolvent; conditions: about 25° C.
# Description: To assess the ability of Et-LGK to solubilize IBIB into water, Et-LGK is added to each of these mixtures with vigorous stirring in a 20 mL scintillation vial at about 25° C. until a clear solution is obtained.
# [4] = 2,2,4-Trimethyl-1,3-pentanediol (2-methylpropanoate) (Texanol) solubilization into water by cosolvent; conditions: about 25° C.
# Description: To assess the ability of Et-LGK to solubilize Texanol into water, Et-LGK is added to each of these mixtures with vigorous stirring in a 20 mL scintillation vial at about 25° C. until a clear solution is obtained.
# The concentrations of these comparative solvents (in volume %) needed in each case to form a clear solution is reported in Table 6 as Comparative Samples G, H and I, respectively.
# [5] = Miscibility of alkyl ketal esters with water; assay type: physicochemical; conditions: for miscibility with water: miscibility assessed at 25° C. unless stated otherwise
# Description: The term “miscible” and its variations (“miscibility”, etc.) are used herein as a synonym for “soluble”, as that term is defined above. A material may be fully or partially miscible in another. As used herein, a material said to be “miscible” in another, without further qualification, is miscible with that other material in all proportions, i.e., mixtures that contain only the two components form clear homogenous solutions in all weight ratios from 99.9:0.1 to 0.1:99.9. A material is said to be “highly miscible” in another material if it is soluble in the other material to the extent of at least 20 parts in 80 parts of the other material, and preferably is soluble in that other material to the extent of at least 50 parts in 50 parts of the other material. A “highly miscible” material may be soluble in the other material to the extent of 99.9 parts to 0.1 part of that other material and all lower proportions. A material is said to be “sparingly miscible” in another (or has “low miscibility” in another material) if is immiscible (as defined below) therein or otherwise not soluble in that other material to the extent of 20 parts in 80 parts of the other material. A sparingly miscible material may be soluble in that other material to the extent of no more than 10 parts in 90 parts of that other material, and may be soluble in that other material to the extent of no more than 5 parts in 95 parts of the other material. A material is said to be “immiscible” in another if it is not soluble by itself in that material to the extent of at least 1 part per 99 parts of the other material. Unless stated otherwise, miscibility is assessed at 25° C.
# [6] = Miscibility of alkyl ketal esters with organic compounds; assay type: physicochemical; conditions: methanol, ethanol, tetrahydrofuran, acetone, ethyl acetate, methylene chloride, toluene, cyclohexane, acetic acid, poly(propylene glycol), mineral, castor, canola, corn, sunflower oil
# Description: The term “miscible” and its variations (“miscibility”, etc.) are used herein as a synonym for “soluble”, as that term is defined above. A material may be fully or partially miscible in another. As used herein, a material said to be “miscible” in another, without further qualification, is miscible with that other material in all proportions, i.e., mixtures that contain only the two components form clear homogenous solutions in all weight ratios from 99.9:0.1 to 0.1:99.9. A material is said to be “highly miscible” in another material if it is soluble in the other material to the extent of at least 20 parts in 80 parts of the other material, and preferably is soluble in that other material to the extent of at least 50 parts in 50 parts of the other material. A “highly miscible” material may be soluble in the other material to the extent of 99.9 parts to 0.1 part of that other material and all lower proportions. A material is said to be “sparingly miscible” in another (or has “low miscibility” in another material) if is immiscible (as defined below) therein or otherwise not soluble in that other material to the extent of 20 parts in 80 parts of the other material. […] Unless stated otherwise, miscibility is assessed at 25° C.
# [7] = Bleach stability evaluation with Et-LPK (GC-FID purity); assay type: physicochemical; conditions: 8 ml Et-LPK stirred overnight with 2 ml 6% sodium hypochlorite in water; organic phase analysed
# Description: The purity of an Et-LPK sample is measured by GC-FID (Model No. 7890A Gas Chromatograph w/ Flame Ionization Detector; Agilent Technologies, Santa Clara, Calif.). In a 20 ml vial (borosilicate scintillation; VWR International, West Chester, Pa.), 2 ml of a 6% sodium hypochlorite (bleach; Clorox Co., Oakland, Calif.) in water is mixed with 8 ml of Et-LPK to form a mixture. The mixture is shaken vigorously to produce a nearly clear solution. The mixture is further stirred overnight on a magnetic stir plate with a magnetic stir bar. Upon standing, the mixture separates into two phases—an upper organic phase and a bottom aqueous phase. A sample of the organic phase is analyzed by GC-FID to determine the purity of the Et-LPK after mixing.
# [8] = Et-LPK solubilization in Et-LGK/water mixtures (visual miscibility); assay type: physicochemical
# Description: Several three-component mixtures of Et-LGK, water and Et-LPK are prepared by mixing the materials the above materials at room temperature in a 20 ml scintillation vial with shaking. The mixtures prepared are analyzed visually for miscibility. Clear mixture are considered to be “miscible”, and mixtures, which are cloudy or form two or more distinct phases are considered to be “immiscible” on this test.
# [9] = Bleach and peroxide stability evaluations with Et-LGK (GC/FID); assay type: physicochemical; conditions: after storing for 96 hours
# Description: Examples 2-3 and a control (non-bleach) formulation are prepared by combining the ingredients indicated in Table 1 in a 20 ml borosilicate glass scintillation vial, followed by shaking vigorously to form a clear, colorless solution. All formulations are clear, colorless homogenous solutions after standing for three days at room temperature.
# After storing for 96 hours, GC/FID analysis is performed to assess the stability of Examples 2 and 3 and Comparative Sample A. Three analyses are performed with each test sample. […] For Example 1, the Et-LGK concentration is about 9.4%, indicating a slight degradation of the material in the presence of the chlorine bleach.
smiles,measurement,setting,value
"COC(C)COC(C)CO (centres unmarked) [DPGMME, dipropylene glycol monomethyl ether]",Required amount of cosolvent to obtain clear solution,[1]; 10/90 Water/castor oil ratio by volume,55.9 vol.-%
same,Required amount of cosolvent to obtain clear solution,[1]; 25/75 Water/castor oil ratio by volume,65.4 vol.-%
same,Required amount of cosolvent to obtain clear solution,[1]; 50/50 Water/castor oil ratio by volume,73.5 vol.-%
same,Required amount of cosolvent to obtain clear solution,[1]; 75/25 Water/castor oil ratio by volume,78.9 vol.-%
same,Required amount of cosolvent to obtain clear solution,[1]; 90/10 Water/castor oil ratio by volume,80.6 vol.-%
same,Required amount of cosolvent to obtain clear solution,[2]; 10/90 Water/soya methyl ester ratio by volume,48.3 vol.-%
same,Required amount of cosolvent to obtain clear solution,[2]; 25/75 Water/soya methyl ester ratio by volume,62.6 vol.-%
same,Required amount of cosolvent to obtain clear solution,[2]; 50/50 Water/soya methyl ester ratio by volume,73.6 vol.-%
same,Required amount of cosolvent to obtain clear solution,[2]; 75/25 Water/soya methyl ester ratio by volume,78.3 vol.-%
same,Required amount of cosolvent to obtain clear solution,[2]; 90/10 Water/soya methyl ester ratio by volume,78.3 vol.-%
same,Required amount of cosolvent to obtain clear solution,[3]; 10/90 Water/IBIB ratio by volume,54.5 vol. %
same,Required amount of cosolvent to obtain clear solution,[3]; 25/75 Water/IBIB ratio by volume,53.3 vol. %
same,Required amount of cosolvent to obtain clear solution,[3]; 50/50 Water/IBIB ratio by volume,58.9 vol. %
same,Required amount of cosolvent to obtain clear solution,[3]; 75/25 Water/IBIB ratio by volume,60.0 vol. %
same,Required amount of cosolvent to obtain clear solution,[3]; 90/10 Water/IBIB ratio by volume,62.5 vol. %
same,Required amount of cosolvent to obtain clear solution,[4]; 10/90 Water/Texanol ratio by volume,44.4 vol.-%
same,Required amount of cosolvent to obtain clear solution,[4]; 25/75 Water/Texanol ratio by volume,50.9 vol.-%
same,Required amount of cosolvent to obtain clear solution,[4]; 50/50 Water/Texanol ratio by volume,55.2 vol.-%
same,Required amount of cosolvent to obtain clear solution,[4]; 75/25 Water/Texanol ratio by volume,54.1 vol.-%
same,Required amount of cosolvent to obtain clear solution,[4]; 90/10 Water/Texanol ratio by volume,51.6 vol.-%
CCOC(=O)CC1(C)OCC(CO)O1 (centres unmarked) [Et-AcAcGK],miscibility with water,[5],miscible with water in all proportions
CCOC(=O)CCC1(C)OCCO1 [Et-LEK],miscible in water to the extent of,[5],about 5 parts per 95 parts of water
CCCCOC(=O)CCC1(C)OCC(CO)O1 (centres unmarked) [n-butyl-LGK],miscible with water to the extent of,[5],about 1 part per 99 parts water
CCCOC(=O)CCC1(C)OCC(CO)O1 (centres unmarked) [n-propyl-LGK],miscible with water to the extent of,[5],about 1 part per 99 parts water
COC(=O)CCC1(C)OCC(CO)O1 (centres unmarked) [Me-LGK],miscibility with water,[5],miscible with water in all proportions
CCOC(=O)CCC1(C)OCC(C)O1 (centres unmarked) [Et-LPK],miscible in water to the extent of,[5],about 2.5 parts in 97.5 parts of water
same,dissolves or is miscible with organic compounds to the extent of,[6],at least 20 parts of the organic compound in 80 parts of ethyl-LPK
same,change in purity of Et-LPK (GC-FID) versus initial purity,[7],little to no change in the purity
same,Et-LPK concentration obtained in a miscible mixture with water and Et-LGK,[8]; Mixture 18,~55 wt. %
same,miscibility of Et-LPK in water,"[8]; at the 10.9% level, no Et-LGK",immiscible
COC(=O)CC1(C)OCC(CO)O1 (centres unmarked) [Me-AcAcGK],miscibility with water,[5],miscible with water in all proportions
CCOC(=O)CCC1(C)OCC(CO)O1 (centres unmarked) [Et-LGK],miscibility with water,[5],miscible in water in all proportions
same,Et-LGK concentration (GC/FID),[9]; control (non-bleach) formulation,about 10%
same,Et-LGK concentration (GC/FID),[9]; formulation with 6% sodium hypochlorite solution (Table 1 'Example 1'),about 9.4%
same,Et-LGK concentration (GC/FID),[9]; formulation with hydrogen peroxide (Table 1 'Example 2'),the same as the control
